Results from ChEMBL document CHEMBL3046216, “Synthesis, biological evaluation and QSAR study of a series of substituted quinazolines as antimicrobial agents” (2013).
≈ marks a conversion by molar mass, not a printed value. Calls of active or inactive are those of the source. The calls are words filed in the database; no cut-off is given here.

Columns and labels:
Type in all cases: functional
Bacillus subtilis = assay: Antimicrobial activity against Bacillus subtilis ATCC 6633 assessed as growth inhibition after 24 hr by NCCLS broth dilution method
Staphylococcus aureus = assay: Antimicrobial activity against Staphylococcus aureus ATCC 25923 assessed as growth inhibition after 24 hr by NCCLS broth dilution method
Pseudomonas aeruginosa = assay: Antimicrobial activity against Pseudomonas aeruginosa ATCC 27853 assessed as growth inhibition after 24 hr by NCCLS broth dilution method
Escherichia coli = assay: Antimicrobial activity against Escherichia coli ATCC 25922 assessed as growth inhibition after 24 hr by NCCLS broth dilution method

| MIC (Bacillus subtilis) | MIC (Bacillus subtilis; ATCC 6633, 24 h) [µg/mL] | MIC (Staphylococcus aureus) | MIC (Staphylococcus aureus; ATCC 25923, 24 h) [µg/mL] | MIC (Pseudomonas aeruginosa) | MIC (Pseudomonas aeruginosa; ATCC 27853, 24 h) [µg/mL] | MIC (Escherichia coli) | MIC (Escherichia coli; ATCC 25922, 24 h) [µg/mL] | Structure (SMILES) |
| --- | --- | --- | --- | --- | --- | --- | --- | --- |
| inactive | 75 (≈ 165 µM) | inactive | 12.5 (≈ 27.4 µM) | inactive | 12.5 (≈ 27.4 µM) | inactive | 50 (≈ 110 µM) | Cc1ccc(NC(=O)Nc2ccc3ncnc(Sc4nnc(-c5cccnc5)o4)c3c2)cc1 |
| inactive | 25 (≈ 45 µM) | inactive | 50 (≈ 90 µM) | inactive | 50 (≈ 90 µM) | inactive | 25 (≈ 45 µM) | CN1CCN(c2cc3ncnc(Sc4nnc(-c5cccnc5)o4)c3cc2NC(=S)Nc2ccccc2)CC1 |
| inactive | 25 (≈ 51.3 µM) | inactive | 12.5 (≈ 25.6 µM) | inactive | 50 (≈ 103 µM) | inactive | 25 (≈ 51.3 µM) | COc1ccccc1NC(=S)Nc1ccc2ncnc(Sc3nnc(-c4cccnc4)o3)c2c1 |
| inactive | 6.25 (≈ 10.6 µM) | inactive | 25 (≈ 42.4 µM) | inactive | 12.5 (≈ 21.2 µM) | inactive | 25 (≈ 42.4 µM) | CN1CCN(c2cc3ncnc(Sc4nnc(-c5cccnc5)o4)c3cc2NC(=S)Nc2ccccc2Cl)CC1 |
| inactive | 25 (≈ 43.9 µM) | inactive | 50 (≈ 87.8 µM) | inactive | 100 (≈ 176 µM) | inactive | 25 (≈ 43.9 µM) | Cc1cccc(NC(=S)Nc2cc3c(Sc4nnc(-c5cccnc5)o4)ncnc3cc2N2CCN(C)CC2)c1 |

Second part, the compound before the results:

| Structure (SMILES) | MIC (Bacillus subtilis) | MIC (Bacillus subtilis; ATCC 6633, 24 h) [µg/mL] | MIC (Staphylococcus aureus) | MIC (Staphylococcus aureus; ATCC 25923, 24 h) [µg/mL] | MIC (Pseudomonas aeruginosa) | MIC (Pseudomonas aeruginosa; ATCC 27853, 24 h) [µg/mL] | MIC (Escherichia coli) | MIC (Escherichia coli; ATCC 25922, 24 h) [µg/mL] |
| --- | --- | --- | --- | --- | --- | --- | --- | --- |
| CN1CCN(c2cc3ncnc(Sc4nnc(-c5cccnc5)o4)c3cc2NC(=O)Nc2ccc(-c3ccccc3)cc2)CC1 | inactive | 100 (≈ 162 µM) | inactive | 25 (≈ 40.6 µM) | inactive | 25 (≈ 40.6 µM) | inactive | 50 (≈ 81.2 µM) |
| CN1CCN(c2cc3ncnc(Sc4nnc(-c5cccnc5)o4)c3cc2NC(=S)NC2CCCCC2)CC1 | inactive | 75 (≈ 134 µM) | inactive | 100 (≈ 178 µM) | inactive | 50 (≈ 89 µM) | inactive | 25 (≈ 44.5 µM) |
| CN[C@@H]1[C@H](O[C@H]2[C@H](O[C@H]3[C@H](O)[C@@H](O)[C@H](N=C(N)N)[C@@H](O)[C@@H]3N=C(N)N)O[C@@H](C)[C@]2(O)C=O)O[C@@H](CO)[C@H](O)[C@H]1O [STREPTOMYCIN] | inactive | 6.25 (≈ 10.7 µM) | inactive | 6.25 (≈ 10.7 µM) | inactive | 3.12 (≈ 5.37 µM) | inactive | 3.12 (≈ 5.37 µM) |
| Cc1cccc(NC(=O)Nc2ccc3ncnc(Sc4nnc(-c5cccnc5)o4)c3c2)c1 | inactive | 25 (≈ 54.9 µM) | inactive | 25 (≈ 54.9 µM) | inactive | 50 (≈ 110 µM) | inactive | 12.5 (≈ 27.4 µM) |
